Source: DBAASP
In brackets after ≈: the same amount, converted by molar mass. Each block holds one compound with its values, some of them ahead of it.

Columns and labels:
Test in all cases: ≥ marks a high value that may be exact or a test limit, other limits are often not marked, values filed in µg/mL are converted to µM
[1] = system: Bacillus subtilis ATCC 6633
[2] = system: Enterococcus faecium CMCC 1.2136
[3] = system: Escherichia coli CVCC 1515
[4] = system: Escherichia coli CVCC 195
[5] = system: Escherichia coli O157:H7 CICC 21530
[6] = system: Pseudomonas aeruginosa CICC 10419
[7] = system: Pseudomonas aeruginosa CICC 21630
[8] = system: Salmonella enterica subsp. enterica serovar Choleraesuis CVCC 503
[9] = system: Salmonella enterica subsp. enterica serovar Enteritidis CVCC 3377
[10] = system: Salmonella enterica subsp. enterica serovar Pullorum CVCC 1789
[11] = system: Salmonella enterica subsp. enterica serovar Pullorum CVCC 1802
[12] = system: Salmonella enterica subsp. enterica serovar Typhimurium ATCC 14028
[13] = system: Staphylococcus aureus ATCC 25923
[14] = system: Staphylococcus aureus ATCC 43300
[15] = system: Streptococcus suis CVCC 606
[16] = system: Bacillus subtilis VKM B-501
[17] = system: Escherichia coli C600
[18] = system: Staphylococcus aureus 209P
[19] = system: Bacillus cereus ATCC 11778
[20] = system: Bacillus thuringiensis ATCC 10792
[21] = system: Enterococcus faecium CCT 5079
[22] = system: Enterococcus hirae ATCC 10541
[23] = system: Escherichia coli ATCC 11775
[24] = system: Escherichia coli ATCC 25922
[25] = system: Escherichia coli CCT 1457
[26] = system: Micrococcus luteus ATCC 4698
[27] = system: Pseudomonas aeruginosa ATCC 13388
[28] = system: Pseudomonas aeruginosa ATCC 15422
[29] = system: Salmonella enterica subsp. enterica serovar Choleraesuis ATCC 10708
[30] = system: Staphylococcus aureus CCT 2580
[31] = system: Staphylococcus aureus CCT 6538
[32] = system: Staphylococcus epidermidis ATCC 12228
[33] = system: Streptococcus mutans AU159
[34] = system: Streptococcus pneumoniae ATCC 11733
[35] = system: Escherichia coli BL21(DE3)
[36] = system: Pseudomonas aeruginosa
[37] = system: Pseudomonas aeruginosa ATCC 27853
[38] = system: Pseudomonas aeruginosa ATCC 9027
[39] = system: Staphylococcus aureus ATCC 19636
[40] = system: Staphylococcus aureus ATCC 29213
[41] = system: Escherichia coli BW25113 ΔsbmA
[42] = system: Escherichia coli BW25113

MIC [1]: 1.66 µM (≈ 4 µg/mL) | MIC [2]: 6.63 µM (≈ 16 µg/mL) | MIC [3]: 6.63 µM (≈ 16 µg/mL) | MIC [4]: 13.3 µM (≈ 32 µg/mL) | MIC [5]: 6.63 µM (≈ 16 µg/mL) | MIC [6]: ≥ 53 µM | MIC [7]: ≥ 53 µM | MIC [9]: 0.414 µM (≈ 1 µg/mL) | MIC [10]: ≥ 53 µM | MIC [11]: 13.3 µM (≈ 32 µg/mL) | MIC [12]: > 26.5 µM | MIC [13]: 0.829 µM (≈ 2 µg/mL) | MIC [14]: > 26.5 µM | MIC [15]: ≥ 53 µM
Compound: CC(C)[C@H](NC(=O)CNC(=O)[C@H](CC(N)=O)NC(=O)[C@H](CCCN=C(N)N)NC(=O)[C@H](Cc1ccc(O)cc1)NC(=O)[C@@H](NC(=O)[C@H](C)NC(=O)[C@@H](NC(=O)[C@H](CC(N)=O)NC(=O)[C@H](Cc1c[nH]c2ccccc12)NC(=O)[C@H](C)NC(=O)[C@H](Cc1ccccc1)NC(=O)CN)C(C)C)C(C)C)C(=O)N[C@@H](CCCN=C(N)N)C(=O)N[C@H](C(=O)N[C@@H](C)C(=O)N[C@@H](Cc1cnc[nH]1)C(=O)N[C@@H](CCCN=C(N)N)C(=O)N[C@@H](CCCN=C(N)N)C(=O)N[C@@H](C)C(=O)N[C@@H](CC(N)=O)C(=O)O)C(C)C [GFAWNVAVYRNGVRVAHRRAN]
MIC [8]: 26.5 µM (≈ 64 µg/mL)

MIC [16]: 0.7 µM (≈ 2.02 µg/mL) | MIC [17]: 6 µM (≈ 17.3 µg/mL) | MIC [18]: 18 µM (≈ 51.9 µg/mL)
Compound: CC[C@H](C)[C@H](NC(=O)[C@H](C)NC(=O)[C@H](CCCCN)NC(=O)[C@H](CCCN=C(N)N)NC(=O)CNC(=O)[C@H](CCCCN)NC(=O)[C@H](CCCCN)NC(=O)[C@H](CCCCN)NC(=O)[C@@H](NC(=O)[C@H](CC(C)C)NC(=O)[C@H](CCCCN)NC(=O)CNC(=O)[C@H](Cc1ccccc1)NC(=O)[C@H](CC(C)C)NC(=O)CN)[C@@H](C)CC)C(=O)N[C@@H](CO)C(=O)N[C@@H](Cc1ccc(O)cc1)C(=O)N[C@@H](C)C(=O)N[C@H](C(=O)N[C@@H](CCCCN)C(=O)N[C@@H](CCCCN)C(=O)N[C@@H](C)C(=O)N[C@@H](CCCN=C(N)N)C(=O)NCC(=O)N[C@@H](CCCCN)C(=O)N[C@@H](Cc1cnc[nH]1)C(=O)O)C(C)C [GLFGKLIKKKGRKAISYAVKKARGKH]

MIC [19]: ≥ 85 µM | MIC [20]: ≥ 85 µM | MIC [21]: ≥ 170 µM | MIC [22]: ≥ 170 µM | MIC [23]: ≥ 340 µM | MIC [24]: 170 µM (≈ 250 µg/mL) | MIC [25]: ≥ 170 µM | MIC [26]: 10.6 µM (≈ 15.6 µg/mL) | MIC [27]: ≥ 340 µM | MIC [28]: ≥ 340 µM | MIC [12]: 340 µM (≈ 500 µg/mL) | MIC [13]: 10.9 µM (≈ 16 µg/mL) | MIC [30]: 2.72 µM (≈ 4 µg/mL) | MIC [31]: 10.9 µM (≈ 16 µg/mL) | MIC [32]: 10.9 µM (≈ 16 µg/mL) | MIC [33]: ≥ 170 µM | MIC [34]: 0.68 µM (≈ 0.999 µg/mL)
Compound: CC[C@H](C)[C@H](N)C(=O)N[C@@H](CC(N)=O)C(=O)N[C@@H](Cc1c[nH]c2ccccc12)C(=O)N[C@@H](CC(C)C)C(=O)N[C@@H](C)C(=O)N[C@H](C(=O)N[C@@H](C)C(=O)N[C@@H](C)C(=O)N[C@@H](CCCCN)C(=O)N[C@H](C(=O)N[C@@H](C)C(=O)NCC(=O)N[C@@H](CCSC)C(=O)N[C@@H](CC(C)C)C(N)=O)C(C)C)[C@@H](C)CC [INWLAIAAKVAGML]
MIC [29]: ≥ 340 µM

MIC [35]: 0.2 µM (≈ 0.344 µg/mL) | MIC [36]: 2.5 µM (≈ 4.3 µg/mL) | MIC [32]: 0.025 µM (≈ 0.043 µg/mL)
Compound: CC[C@H](C)[C@H](NC(=O)[C@@H]1CCCN1C(=O)[C@H](CC(C)C)NC(=O)[C@H](CC(C)C)NC(=O)[C@H](CCCCN)NC(=O)[C@@H](N)CCCCN)C(=O)N[C@H](C(=O)N[C@@H](CCCCN)C(=O)N[C@@H](CC(N)=O)C(=O)N[C@@H](CC(C)C)C(=O)N[C@@H](CC(C)C)C(=O)N[C@@H](CCCCN)C(=O)N[C@@H](CO)C(=O)N[C@@H](CC(C)C)C(=O)N[C@@H](CC(C)C)C(=O)O)C(C)C [KKLLPIVKNLLKSLL]

MIC [24]: 1.78 µM (≈ 3.1 µg/mL) | MIC [37]: 0.918 µM (≈ 1.6 µg/mL) | MIC [38]: 1.78 µM (≈ 3.1 µg/mL) | MIC [39]: 0.918 µM (≈ 1.6 µg/mL) | MIC [13]: 7.17 µM (≈ 12.5 µg/mL) | MIC [40]: 7.17 µM (≈ 12.5 µg/mL)
Compound: CC(C)C[C@H](NC(=O)[C@H](Cc1c[nH]c2ccccc12)NC(=O)[C@H](CCCCN)NC(=O)[C@H](CC(C)C)NC(=O)[C@H](Cc1c[nH]c2ccccc12)NC(=O)[C@H](C)NC(=O)[C@H](CCCN=C(N)N)NC(=O)[C@H](Cc1c[nH]c2ccccc12)NC(=O)[C@H](CCCCN)NC(=O)[C@@H](N)CCCCN)C(=O)N[C@@H](C)C(=O)N[C@@H](CCCCN)C(=O)N[C@@H](CCCCN)C(=O)O [KKWRAWLKWLAKK]

MIC [41]: 8 µM (≈ 24.8 µg/mL) | MIC [42]: 1 µM (≈ 3.1 µg/mL)
Compound: CC[C@H](C)[C@H](NC(=O)[C@@H]1CCCN1C(=O)[C@@H]1CCCN1C(=O)[C@H](CCCN=C(N)N)NC(=O)[C@H](Cc1ccccc1)NC(=O)[C@@H](N)CCCN=C(N)N)C(=O)N[C@@H](CCCN=C(N)N)C(=O)N[C@@H](CCCN=C(N)N)C(=O)N1CCC[C@H]1C(=O)N1CCC[C@H]1C(=O)N[C@H](C(=O)N[C@@H](CCCN=C(N)N)C(=O)N1CCC[C@H]1C(=O)N1CCC[C@H]1C(=O)N[C@@H](Cc1ccccc1)C(=O)N[C@@H](CCCN=C(N)N)C(=O)N1CCC[C@H]1C(=O)N1CCC[C@H]1C(=O)N[C@@H](Cc1ccccc1)C(=O)N[C@@H](CCCN=C(N)N)C(=O)N1CCC[C@H]1C(=O)N1CCC[C@H]1C(=O)N[C@H](C(=O)N[C@@H](CCCN=C(N)N)C(=O)N1CCC[C@H]1C(=O)O)C(C)C)[C@@H](C)CC [RFRPPIRRPPIRPPFRPPFRPPVRP]
